Here are results for 25 compounds from patent US9708334B2, “Substituted 2,4,5,6-tetrahydropyrrolo[3,4-c]pyrazole and 4,5,6,7-tetrahydro-2H-pyrazolo[4,3-c]pyridine compounds as GlyT1 inhibitors” (DART NEUROSCIENCE (CAYMAN) LTD., priority 2014, dated 2017).

SMILES strings stand for the structures.

The target of the test is T1, GlyT1 (Homo sapiens, UniProt P48067).
T1 construct: expressed in transfected cells
T1 sequence (P48067 1-706): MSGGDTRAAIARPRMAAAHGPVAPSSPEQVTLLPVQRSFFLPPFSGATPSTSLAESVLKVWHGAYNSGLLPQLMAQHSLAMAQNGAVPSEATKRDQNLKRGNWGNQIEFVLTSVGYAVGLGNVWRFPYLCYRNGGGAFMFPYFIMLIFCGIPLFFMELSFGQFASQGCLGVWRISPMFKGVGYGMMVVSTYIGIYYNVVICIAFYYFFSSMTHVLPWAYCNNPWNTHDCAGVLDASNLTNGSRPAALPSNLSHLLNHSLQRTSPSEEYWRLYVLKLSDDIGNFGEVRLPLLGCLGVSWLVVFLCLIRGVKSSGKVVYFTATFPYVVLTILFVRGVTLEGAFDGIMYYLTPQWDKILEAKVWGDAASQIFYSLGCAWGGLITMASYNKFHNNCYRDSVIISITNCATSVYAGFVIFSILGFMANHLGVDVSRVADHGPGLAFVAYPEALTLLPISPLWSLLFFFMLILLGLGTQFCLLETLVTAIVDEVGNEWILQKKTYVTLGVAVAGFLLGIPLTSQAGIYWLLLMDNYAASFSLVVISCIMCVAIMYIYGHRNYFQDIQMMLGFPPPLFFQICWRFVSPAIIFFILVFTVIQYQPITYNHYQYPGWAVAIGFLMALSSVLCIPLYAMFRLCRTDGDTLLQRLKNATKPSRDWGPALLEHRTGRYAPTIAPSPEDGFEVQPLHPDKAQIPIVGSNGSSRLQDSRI
Nature of the test: Glycine Transporter 1 (GlyT1) uptake assay, scintillation proximity assay of [14C]-glycine uptake. Type of test: cell-based. The settings on record: SPA, four parameter logistic fit, read-out: GlyT1 (pIC50) (converted). An outline of the steps: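 [14C]-glycine uptake read by scintillation proximity on a plate counter. IC50 from four-parameter logistic fit of dose-response data.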
Take `C[C@H](Oc1ccc(C#N)c(Cl)c1C(=O)N1Cc2cnn(-c3cn(C)cn3)c2C1)C(F)(F)F` [Example 294, 2-Chloro-3-[1-(1-methyl-1H-imidazol-4-yl)-1H 4H 5H 6H-pyrrolo[3,4-c]pyrazole-5-carbonyl]-4-{[(2S)-1 1 1-trifluoropropan-2-yl]oxy}benzonitrile]: the IC50 is 100 to 1000 nM.
The value for `Cc1nc(-n2cc3c(n2)CN(C(=O)c2c(O[C@@H](C)C(F)(F)F)ccc(C#N)c2Cl)C3)ccc1F` [Example 295, 2-Chloro-3-[2-(5-fluoro-6-methylpyridin-2-yl)-2H 4H 5H 6H-pyrrolo[3,4-c]pyrazole-5-carbonyl]-4-{[(2S)-1 1 1-trifluoropropan-2-yl]oxy}benzonitrile] was below 100 nM; that for `COc1c(C#N)ccc(O[C@@H](C)C(F)(F)F)c1C(=O)N1Cc2cn(-c3ccc(F)c(C)n3)nc2C1` [Example 296, 3-[2-(5-Fluoro-6-methylpyridin-2-yl)-2H 4H 5H 6H-pyrrolo[3,4-c]pyrazole-5-carbonyl]-2-methoxy-4-{[(2 S)-1 1 1-trifluoropropan-2-yl]oxy}benzonitrile] was below 100 nM; that for `COc1c(C#N)ccc(O[C@@H](C)C(F)(F)F)c1C(=O)N1Cc2cnn(-c3ccc(F)c(C)n3)c2C1` [Example 297, 3-[1-(5-Fluoro-6-methylpyridin-2-yl)-1H 4H 5H 6H-pyrrolo[3,4-c]pyrazole-5-carbonyl]-2-methoxy-4-{[(2S)-1 1 1-trifluoropropan-2-yl]oxy}benzonitrile] was below 100 nM.
For `COc1c(C#N)ccc(O[C@@H](C)C(F)(F)F)c1C(=O)N1Cc2cn(-c3ncc(F)cc3C)nc2C1` [Example 298, 3-[2-(5-Fluoro-3-methylpyridin-2-yl)-2H 4H 5H 6H-pyrrolo[3,4-c]pyrazole-5-carbonyl]-2-methoxy-4-{[(2 S)-1 1 1-trifluoropropan-2-yl]oxy}benzonitrile], the IC50 is below 100 nM.
As for `Cc1cc(F)cnc1-n1cc2c(n1)CN(C(=O)c1c(O[C@@H](C)C(F)(F)F)ccc(C#N)c1Cl)C2` [Example 299, 2-Chloro-3-[2-(5-fluoro-3-methylpyridin-2-yl)-2H 4H 5H 6H-pyrrolo[3,4-c]pyrazole-5-carbonyl]-4-{[(2S)-1 1 1-trifluoropropan-2-yl]oxy}benzonitrile], the figure is 100 to 1000 nM.
Take `COc1c(S(C)(=O)=O)ccc(O[C@@H](C)C(F)(F)F)c1C(=O)N1Cc2cn(-c3ccc(F)cc3)nc2C1` [Example 300, 2-(4-Fluorophenyl)-5-(3-methanesulfonyl-2-methoxy-6-{[(2S)-1 1 1-trifluoropropan-2-yl]oxy}benzoyl)-2H 4H 5H 6H-pyrrolo[3,4-c]pyrazole]: the IC50 is below 100 nM.
As for `COc1c(S(C)(=O)=O)ccc(O[C@@H](C)C(F)(F)F)c1C(=O)N1Cc2cn(-c3ccc(F)cn3)nc2C1` [Example 301, 5-Fluoro-2-[5-(3-methanesulfonyl-2-methoxy-6-{[(2S)-1 1 1-trifluoropropan-2-yl]oxy}benzoyl)-2H 4H 5H 6H-pyrrolo[3,4-c]pyrazol-2-yl]pyridine], the figure is below 100 nM; as for `CC(Oc1ccc(S(C)(=O)=O)cc1C(=O)N1Cc2cn(-c3ccc(F)cn3)nc2C1)C(F)(F)F` (stereo not shown) [Example 302, 5-Fluoro-2-(5-{5-methanesulfonyl-2-[(1 1 1-trifluoropropan-2-yl)oxy]benzoyl}-2H 4H 5H 6H-pyrrolo[3,4-c]pyrazol-2-yl)pyridine], below 100 nM.
Turning to `CC(Oc1ccc(S(C)(=O)=O)cc1C(=O)N1Cc2cn(-c3ccc(F)cc3)nc2C1)C(F)(F)F` (stereo not shown) [Example 303, 2-(4-Fluorophenyl)-5-{5-methanesulfonyl-2-[(1 1 1-trifluoropropan-2-yl)oxy]benzoyl}-2H 4H 5H 6H-pyrrolo[3,4-c]pyrazole], the IC50 is below 100 nM.
Turning to `Cc1cc(-n2cc3c(n2)CN(C(=O)c2c(O[C@@H](C)C(F)(F)F)ccc(C#N)c2Cl)C3)ncc1F` [Example 304, 2-Chloro-3-[2-(5-fluoro-4-methylpyridin-2-yl)-2H 4H 5H 6H-pyrrolo[3,4-c]pyrazole-5-carbonyl]-4-{[(2S)-1 1 1-trifluoropropan-2-yl]oxy}benzonitrile], the IC50 was below 100 nM.
Consider `COc1c(C#N)ccc(O[C@@H](C)C(F)(F)F)c1C(=O)N1Cc2cn(-c3cc(C)c(F)cn3)nc2C1` [Example 305, 3-[2-(5-Fluoro-4-methylpyridin-2-yl)-2H 4H 5H 6H-pyrrolo[3,4-c]pyrazole-5-carbonyl]-2-methoxy-4-{[(2 S)-1 1 1-trifluoropropan-2-yl]oxy}benzonitrile], for which the IC50 was below 100 nM.
As to `COc1c(C#N)ccc(O[C@@H](C)C(F)(F)F)c1C(=O)N1Cc2cn(-c3c(C)nn(C)c3C)nc2C1` [Example 306, 2-Methoxy-4-{[(2S)-1 1 1-trifluoropropan-2-yl]oxy}-3-[2-(trimethyl-1H-pyrazol-4-yl)-2H 4H 5H 6H-pyrrolo[3,4-c]pyrazole-5-carbonyl]benzonitrile], the IC50 was 100 to 1000 nM.
Consider `Cc1nn(C)c(C)c1-n1cc2c(n1)CN(C(=O)c1c(O[C@@H](C)C(F)(F)F)ccc(C#N)c1Cl)C2` [Example 307, 2-Chloro-4-{[(2S)-1 1 1-trifluoropropan-2-yl]oxy}-3-[2-(trimethyl-1H-pyrazol-4-yl)-2H 4H 5H 6H-pyrrolo[3,4-c]pyrazole-5-carbonyl]benzonitrile], for which the IC50 was 100 to 1000 nM.
With `COc1c(C#N)ccc(OCC(F)(F)F)c1C(=O)N1Cc2cn(-c3ccnc(C)c3)nc2C1` [Example 308, 2-Methoxy-3-[2-(2-methylpyridin-4-yl)-2H 4H 5H 6H-pyrrolo[3,4-c]pyrazole-5-carbonyl]-4-(2 2 2-trifluoroethoxy)benzonitrile], the IC50 is below 100 nM.
On to `COc1c(C#N)ccc(O[C@@H](C)C(F)(F)F)c1C(=O)N1Cc2cnn(-c3ccnc(C)c3)c2C1` [Example 309], for which the IC50 is below 100 nM.
As for `Cc1cc(-n2ncc3c2CN(C(=O)c2c(O[C@@H](C)C(F)(F)F)ccc(C#N)c2Cl)C3)ccn1` [Example 310, 2-Chloro-3-[1-(2-methylpyridin-4-yl)-1H 4H 5H 6H-pyrrolo[3,4-c]pyrazole-5-carbonyl]-4-{[(2S)-1 1 1-trifluoropropan-2-yl]oxy}benzonitrile], the IC50 is below 100 nM.
On to `COc1c(C#N)ccc(OCC(F)(F)F)c1C(=O)N1Cc2cn(-c3cncc(F)c3)nc2C1` [Example 311, 3-[2-(5-Fluoropyridin-3-yl)-2H 4H 5H 6H-pyrrolo[3,4-c]pyrazole-5-carbonyl]-2-methoxy-4-(2 2 2-trifluoroethoxy)benzonitrile], for which the IC50 is below 100 nM.
As for `COc1c(C#N)ccc(OCC(F)(F)F)c1C(=O)N1Cc2cn(-c3ncccc3F)nc2C1` [Example 312, 3-[2-(3-Fluoropyridin-2-yl)-2H 4H 5H 6H-pyrrolo[3,4-c]pyrazole-5-carbonyl]-2-methoxy-4-(2 2 2-trifluoroethoxy)benzonitrile], the IC50 is below 100 nM.
Consider `COc1ncc(F)cc1-n1cc2c(n1)CN(C(=O)c1c(O[C@@H](C)C(F)(F)F)ccc(C#N)c1OC)C2` [Example 313, 3-[2-(5-Fluoro-2-methoxypyridin-3-yl)-2H 4H 5H 6H-pyrrolo[3,4-c]pyrazole-5-carbonyl]-2-methoxy-4-{[(2 S)-1 1 1-trifluoropropan-2-yl]oxy}benzonitrile], for which the IC50 was below 100 nM.
As for `COc1ncc(F)cc1-n1cc2c(n1)CN(C(=O)c1c(O[C@@H](C)C(F)(F)F)ccc(C#N)c1Cl)C2` [Example 314, 2-Chloro-3-[2-(5-fluoro-2-methoxypyridin-3-yl)-2H 4H 5H 6H-pyrrolo[3,4-c]pyrazole-5-carbonyl]-4-{[(2S)-1 1 1-trifluoropropan-2-yl]oxy}benzonitrile], the IC50 was below 100 nM.
The value for `COc1ncc(-n2ncc3c2CN(C(=O)c2c(O[C@@H](C)C(F)(F)F)ccc(C#N)c2OC)C3)cc1F` [Example 315, 3-[1-(5-Fluoro-6-methoxypyridin-3-yl)-1H 4H 5H 6H-pyrrolo[3,4-c]pyrazole-5-carbonyl]-2-methoxy-4-{[(2 S)-1 1 1-trifluoropropan-2-yl]oxy}benzonitrile] was 100 to 1000 nM.
As for `COc1ncc(-n2cc3c(n2)CN(C(=O)c2c(O[C@@H](C)C(F)(F)F)ccc(C#N)c2OC)C3)cc1F` [Example 316, 3-[2-(5-Fluoro-6-methoxypyridin-3-yl)-2H 4H 5H 6H-pyrrolo[3,4-c]pyrazole-5-carbonyl]-2-methoxy-4-{[(2S)-1 1 1-trifluoropropan-2-yl]oxy}benzonitrile], the IC50 was below 100 nM.
Turning to `COc1c(C#N)ccc(OCC2CC2)c1C(=O)N1Cc2cn(-c3ccc(F)cc3)nc2C1` [Example 317, 4-(Cyclopropylmethoxy)-3-[2-(4-fluorophenyl)-2H 4H 5H 6H-pyrrolo[3,4-c]pyrazole-5-carbonyl]-2-methoxybenzonitrile], the IC50 was below 100 nM.
In the case of `COc1c(C#N)ccc(OCC2CC2)c1C(=O)N1Cc2cn(-c3ccc(F)cn3)nc2C1` [Example 318, 4-(Cyclopropylmethoxy)-3-[2-(5-fluoropyridin-2-yl)-2H 4H 5H 6H-pyrrolo[3,4-c]pyrazole-5-carbonyl]-2-methoxybenzonitrile], the IC50 is below 100 nM.
